Laboratory results as given in PMC10137179, “Assessment of Covalently Binding Warhead Compounds in the Validation of the Cytomegalovirus Nuclear Egress Complex as an Antiviral Target” (Cells, 2023).
Read-outs that look alike come from different tables or passages of the source.

How the values were obtained:
in vitro = format: cell-based, human; settings: human
Protocol: (§1) Cytotoxicity of the analyzed compounds was determined by the Neutral Red dye uptake assay. A total of 1.35 × 10^5 HFFs per well were seeded in 96-well plates 1 d prior to analysis, cultivated overnight until cells were confluent and then incubated with compounds for 7 days. The assay was performed as described previously using 40 μg/mL Neutral Red (Sigma Aldrich). The quantity of dye incorporation was determined using the Victor X4 microplate reader (PerkinElmer, Waltham, MA, USA) by fluorescence measurement at 560/630 nm for excitation/emission, respectively. To assess antiviral activity of compounds, HFFs seeded in 96-well plates (1.35 × 10^5 HFFs per well) were infected with HCMV AD169-GFP or TB40-IE2-YFP to reach 25–50% infected cells at 7 days post-infection (d p.i.). After incubation with the infectious inoculum for 1.5 h at 37 °C, compounds were added in serial dilutions. At 7 d p.i., cells were fixed for 10 min at room temperature using 10% formalin. Finally, cells were washed once with PBS followed by automated fluorescence quantitation.

HCMV AD169-GFP = test: microbe, parasite or virus in culture; format: cell-based, human cytomegalovirus (HCMV); settings: for SI: selectivity index CC50/EC50, AD169-GFP
Protocol: as §1
Seeking for a novel group of potential antiviral agents, small molecules with covalent protein-binding activity were investigated. These small molecules, originally developed as kinase inhibitors, carry a so-called warhead moiety as an important functional group, such as the prototype afatinib (Figure 1A, red circle). In this study, a series of newly generated warhead compounds (most of which are the property of B.K./Lead Discovery Center, Dortmund, Germany) were used for an evaluation of putative antiviral and core NEC-inhibitory properties. In a first step, the antiviral activity of warheads was analyzed against HCMV TB40-IE2-YFP (Figure 1B) and AD169-GFP (Figure 1C). To this end, HFFs were infected with either of the two viral strains before the GFP or YFP reporter signals were measured at 7 d p.i. (in parallel, putative compound cytotoxicity was determined by Neutral Red assay). The HCMVs AD169-GFP and TB40-IE2-YFP, based on BAC-derived recombinants of the laboratory strains AD169 and TB40, respectively, were both propagated on HFFs, and the produced stocks were then used as two reporter viruses for the assessement of antiviral drug activity. While strain AD169 is mainly restricted in its tropism to fibroblasts, TB40 tropism can be extended to fibroblasts and epithelial and endothelial cells. Here, the use of two strains was intended to illustrate the assumption that antiviral activity of these warhead compounds may be directed to conserved viral target proteins, thus pointing out a minor impact of strains.
(A) Chemical structure of a clinically approved prototype of covalently binding warhead inhibitors, […], afatinib/Gilotrif®. The red circle identifies a functionally active α-, β-unsaturated carbonyl group. (B) At 7 d p.i., compounds were analyzed for their cytotoxicity (orange) and antiviral activity (blue) during HCMV infection, using TB40-IE2-YFP as a reporter virus. Cell viability was assessed through Neutral Red staining of uninfected cells. Measurements were performed in quadruplicate (YFP fluorometry) or triplicate (Neutral Red assay), and standard deviations of mean values are given; EC50, CC50 and SI values are indicated accordingly. (C) In a parallel series of analyses, HCMV AD169-GFP was used as another reporter virus representing a second viral strain. […] HCMV AD169-GFP-infected HFFs were treated with 0.1 µM to 50 µM of the compounds (in parallel Neutral Red assay, 0.1 µM to 100 µM), before the signal assessments were performed at 7 d p.i.

[1] = molecular target: T1, pUL50–pUL53 interaction (LgBiT::UL53-Flag + SmBiT::UL50-HA) (Human cytomegalovirus, UniProt P16791); format: cell-based; settings: 293T cells, 5×, 1× or 0.2× anti-HCMV EC50 levels, full-length LgBiT::UL53-Flag
T1 construct: expressed in transfected cells; host or cells: 293T
T1 sequence (P16791 whole entry): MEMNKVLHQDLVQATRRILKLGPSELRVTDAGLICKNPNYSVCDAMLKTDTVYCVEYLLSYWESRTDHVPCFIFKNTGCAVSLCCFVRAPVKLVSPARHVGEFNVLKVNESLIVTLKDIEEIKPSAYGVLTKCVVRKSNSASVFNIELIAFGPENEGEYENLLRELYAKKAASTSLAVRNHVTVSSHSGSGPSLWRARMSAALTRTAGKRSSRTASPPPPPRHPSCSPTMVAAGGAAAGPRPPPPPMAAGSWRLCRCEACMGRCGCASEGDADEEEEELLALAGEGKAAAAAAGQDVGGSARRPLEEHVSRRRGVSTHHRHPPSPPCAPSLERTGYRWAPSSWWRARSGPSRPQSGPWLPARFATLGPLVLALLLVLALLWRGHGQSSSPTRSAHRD

[2] = molecular target: T2, pUL50–pUL53 interaction (LgBiT::UL53(1–87)-Flag + SmBiT::UL50-HA) (Human cytomegalovirus, UniProt P16791); format: cell-based; settings: 293T cells, 5×, 1× or 0.2× anti-HCMV EC50 levels, truncated LgBiT::UL53(1–87)-Flag
T2 construct: expressed in transfected cells; host or cells: 293T
T2 sequence (P16791 whole entry, the tested form may be a part): as the sequence (P16791 whole entry) above

HFFs = test: in vitro; format: cell-based, human
Protocol: as §1

[3] = test system: HCMV pUL53 nuclear rim localization; test: Confocal imaging of pUL53 localization in HCMV AD169-infected HFFs; format: cell-based; settings: HCMV AD169 MOI 0.1, 5 d p.i., concentrations of partial-grade antiviral activity, 50 cells counted per biological triplicate
Protocol: HFF or HFF-UL50 cells, either Dox-induced or uninduced, were seeded in 6-well plates with a density of 2 × 10^5 cells per well, grown on coverslips and infected with HCMV AD169 or AD169 ∆UL50-ΣUL53. For infection experiments with the recombinant virus, different Shield-1 and Dox conditions were analyzed. Antivirals were added post-infection as described for the experiments. For transfection experiments, HeLa cells were seeded on coverslips in 6-well plates with a density of 3.25 × 10^5 cells per well for cotransfection with the indicated NEC expression plasmids (HSV-1 HA-UL34 + Flag-UL31, HCMV pUL50-HA + pUL53-Flag and EBV HA-BFRF1 + Flag-BFLF2). At indicated time points after virus infection, or 3 days post-transfection, cells were fixed, applied for IF staining as described previously and analyzed using a TCS SP5 confocal laser-scanning microscope with Leica LAS AF software (Leica Microsystems, Wetzlar, Germany). […] The device features a Leica photomultiplier tube (PMT) and a hybrid detector (HyD). Images were further processed using Photoshop CS5 (Adobe Inc., San José, CA, USA). Primary and secondary antibodies used for staining were mAb-UL53.01 (kindly provided by S. Jonjic and T. Lenac Rovis, Rijeka, Croatia), mAb-lamin A/C (ab108595, Abcam, Cambridge, UK), mAb-HA (Clone 7, H9658, Sigma-Aldrich, St. Louis, MO, USA), pAb-Flag (F7425, Sigma-Aldrich, St. Louis, MO, USA), anti-mouse Alexa 555 (A21422, Thermo Fisher Scientific, Waltham, MA, USA) and anti-rabbit Alexa 488 (A11034, Thermo Fisher Scientific, Waltham, MA, USA). Microscopic counting was performed for quantitation of colocalization patterns of two different proteins, as achieved by counting 50 cells per biological triplicate.

HCMV TB40-IE2-YFP = test: microbe, parasite or virus in culture; format: cell-based, human cytomegalovirus (HCMV); settings: HFFs infected with HCMV TB40-IE2-YFP, 7 d p.i., YFP fluorometry; read-out: EC50
Protocol: Cytotoxicity of the analyzed compounds was determined by the Neutral Red dye uptake assay. A total of 1.35 × 10^5 HFFs per well were seeded in 96-well plates 1 d prior to analysis, cultivated overnight until cells were confluent and then incubated with compounds for 7 days. The assay was performed as described previously using 40 μg/mL Neutral Red (Sigma Aldrich). The quantity of dye incorporation was determined using the Victor X4 microplate reader (PerkinElmer, Waltham, MA, USA) by fluorescence measurement at 560/630 nm for excitation/emission, respectively. […] Finally, cells were washed once with PBS followed by automated fluorescence quantitation.
Seeking for a novel group of potential antiviral agents, small molecules with covalent protein-binding activity were investigated. […] In a first step, the antiviral activity of warheads was analyzed against HCMV TB40-IE2-YFP (Figure 1B) and AD169-GFP (Figure 1C). To this end, HFFs were infected with either of the two viral strains before the GFP or YFP reporter signals were measured at 7 d p.i. (in parallel, putative compound cytotoxicity was determined by Neutral Red assay). […]
(A) Chemical structure of a clinically approved prototype of covalently binding warhead inhibitors, LDC580, afatinib/Gilotrif®. […] Cell viability was assessed through Neutral Red staining of uninfected cells. […]

[4] = AD169-GFP-infected HFFs, 7 d p.i., 0.1 µM to 50 µM
[5] = Human betaherpesvirus 5, AD169, 168 h, clinically relevant warheads, 0.1 µM to 50 µM, AD169-GFP-infected HFFs, 7 d p.i.

| Compound | CC50 at 7 days (in vitro; CC50) [µM] | antiviral activity (in words) (HCMV AD169-GFP; [4]) | EC50 (HCMV AD169-GFP; [5]) [µM] | SI (HCMV AD169-GFP; clinically relevant warheads) | CC50 at 7 days (in vitro) [µM] | further results |
| --- | --- | --- | --- | --- | --- | --- |
| C=CC(=O)N1CCN(c2nc(=O)n(-c3c(C)ccnc3C(C)C)c3nc(-c4c(O)cccc4F)c(F)cc23)[C@@H](C)C1 [sotorasib] | 95 ± 12 | no notable antiviral activity | > 50 | inactive |  |  |
| C=C1C(=O)O[C@H]2[C@H]1CC/C(C)=C/CC[C@@]1(C)O[C@@H]21 [parthenolide] | 9 ± 0.4 | no notable antiviral activity | 6.7 ± 3.4 |  |  |  |
| COC[C@H]1OC(=O)c2coc3c2[C@@]1(C)C1=C(C3=O)[C@@H]2CCC(=O)[C@@]2(C)C[C@H]1OC(C)=O [wortmannin] |  | no notable antiviral activity |  | inactive | > 100 | EC50 (HCMV AD169-GFP; Human betaherpesvirus 5, AD169, 168 h): > 50 µM |
| COC(=O)[C@]12CCC(C)(C)C[C@H]1[C@H]1C(=O)C=C3[C@@]4(C)C=C(C#N)C(=O)C(C)(C)[C@@H]4CC[C@@]3(C)[C@]1(C)CC2 [CDDO-Me, 2-cyano-3,12-dioxooleana-1,9(11)-dien-28-oic acid methyl ester] |  | no notable antiviral activity | < 0.4 |  | > 0.8 |  |
| C=CC(=O)Nc1cc(Nc2nccc(-c3cn(C)c4ccccc34)n2)c(OC)cc1N(C)CCN(C)C [osimeritinib] |  |  | 1 ± 0.8 |  |  | CC50 at 7 days (in vitro; clinically relevant warheads, 0.1 µM to 100 µM, Neutral Red, uninfected HFFs, 7 d, read-out: CC50): 23 µM; inhibitory effect on NanoBiT interaction signal (in words) [1]: very minor or no effects; inhibitory effect on NanoBiT interaction signal (in words) [2]: very minor or no effects |
| CCOc1cc(/C=c2\sc3n(c2=O)C(c2ccccc2OC)C(C(C)=O)=C(C)N=3)ccc1O (stereo not shown) [LDC492] |  |  |  |  |  | CC50 (HFFs): > 10 µM; cells with partial or predominant dot-like localization of pUL53 within the nucleoplasm [3]: more than 50%; EC50 (HCMV AD169-GFP; HFFs infected with HCMV AD169-GFP, 7 d p.i., investigational LDC warheads, read-out: EC50): 8.9 ± 6.6 µM; EC50 (HCMV TB40-IE2-YFP): > 10 µM |
